# Test system: HCT116 colorectal cancer cells
# Test: Cisplatin sensitization assay (96 h MTS cell viability);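 further: compound concentration needed to lower the IC50 of Cisplatin alone by a set fold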
# Format: cell-based
# Settings: Cisplatin sensitization value
# How it was run: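 HCT116 cells were dosed simultaneously with compound and cisplatin as a full matrix of 2-fold serial dilutions from 10 μM top final concentration. Incubation was 96 h at 37° C., 5% CO2, followed by 1 h with MTS reagent for the viability read-out. Sensitization values were binned into +++, ++ and + categories.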
row,Structure (SMILES),Cisplatin Sensitization Assay
1,"Nc1nn2cc(F)cnc2c1C(=O)Nc1cnccc1N1CCN([C@@H]2CCOC2)CC1 [I-N-10, (R)-2-amino-6-fluoro-N-(4-(4-(tetrahydrofuran-3-yl)piperazin-1-yl)pyridin-3-yl)pyrazolo[1,5-a]pyrimidine-3-carboxamide]",++ (Compounds with a Cisplatin sensitization value >0.02 μM but <0.2 μM are marked with “++.”)
2,"Nc1nn2cc(F)cnc2c1C(=O)Nc1cnccc1N1CCN(C2CCOCC2)CC1 [I-N-11, 2-amino-6-fluoro-N-(4-(4-(tetrahydro-2H-pyran-4-yl)piperazin-1-yl)pyridin-3-yl)pyrazolo[1,5-a]pyrimidine-3-carboxamide]",++ (Compounds with a Cisplatin sensitization value >0.02 μM but <0.2 μM are marked with “++.”)
3,"Nc1nn2cc(F)cnc2c1C(=O)Nc1cnccc1N1CCN([C@H]2CCOC2)CC1 [I-N-12, (S)-2-amino-6-fluoro-N-(4-(4-(tetrahydrofuran-3-yl)piperazin-1-yl)pyridin-3-yl)pyrazolo[1,5-a]pyrimidine-3-carboxamide]",+++ (Compounds with a Cisplatin sensitization value of <0.02 μM are marked with “+++.”)
4,"Nc1nn2cc(F)cnc2c1C(=O)Nc1cncc(F)c1N1CCN(C2COC2)CC1 [I-N-13, 2-amino-6-fluoro-N-(5-fluoro-4-(4-(oxetan-3-yl)piperazin-1-yl)pyridin-3-yl)pyrazolo[1,5-a]pyrimidine-3-carboxamide]",+++ (Compounds with a Cisplatin sensitization value of <0.02 μM are marked with “+++.”)
5,"CN1CCN(c2c(F)cncc2NC(=O)c2c(N)nn3cc(Cl)cnc23)CC1 [I-N-14, 2-amino-6-chloro-N-(5-fluoro-4-(4-methylpiperazin-1-yl)pyridin-3-yl)pyrazolo[1,5-a]pyrimidine-3-carboxamide]",+++ (Compounds with a Cisplatin sensitization value of <0.02 μM are marked with “+++.”)
6,"CN1CCN(c2c(F)cncc2NC(=O)c2c(N)nn3cc(F)cnc23)CC1 [I-N-15, 2-amino-6-fluoro-N-(5-fluoro-4-(4-methylpiperazin-1-yl)pyridin-3-yl)pyrazolo[1,5-a]pyrimidine-3-carboxamide]",+++ (Compounds with a Cisplatin sensitization value of <0.02 μM are marked with “+++.”)
7,"Cc1cncc(NC(=O)c2c(N)nn3cc(F)cnc23)c1N1CCN(C2COC2)CC1 [I-N-16, 2-amino-6-fluoro-N-(5-methyl-4-(4-(oxetan-3-yl)piperazin-1-yl)pyridin-3-yl)pyrazolo[1,5-a]pyrimidine-3-carboxamide]",+++ (Compounds with a Cisplatin sensitization value of <0.02 μM are marked with “+++.”)
8,"CCN1CCN(c2ccncc2NC(=O)c2c(N)nn3cc(F)cnc23)CC1 [I-N-17, 2-amino-N-(4-(4-ethylpiperazin-1-yl)pyridin-3-yl)-6-fluoropyrazolo[1,5-a]pyrimidine-3-carboxamide]",+++ (Compounds with a Cisplatin sensitization value of <0.02 μM are marked with “+++.”)
9,"Nc1nn2cc(F)cnc2c1C(=O)Nc1cnccc1N1CCN2CCC1CC2 [I-N-18, N-(4-(1,4-diazabicyclo[3.2.2]nonan-4-yl)pyridin-3-yl)-2-amino-6-fluoropyrazolo[1,5-a]pyrimidine-3-carboxamide]",++ (Compounds with a Cisplatin sensitization value >0.02 μM but <0.2 μM are marked with “++.”)
10,"Nc1nn2cc(F)cnc2c1C(=O)Nc1cnccc1N1CCN(CC(F)(F)F)CC1 [I-N-20, 2-amino-6-fluoro-N-(4-(4-(2,2,2-trifluoroethyl)piperazin-1-yl)pyridin-3-yl)pyrazolo[1,5-a]pyrimidine-3-carboxamide]",+++ (Compounds with a Cisplatin sensitization value of <0.02 μM are marked with “+++.”)
11,"Nc1nn2cc(F)cnc2c1C(=O)Nc1cnccc1N1CCN2CCC[C@H]2C1 [I-N-21, (S)-2-amino-6-fluoro-N-(4-(hexahydropyrrolo[1,2-a]pyrazin-2(1H)-yl)pyridin-3-yl)pyrazolo[1,5-a]pyrimidine-3-carboxamide]",+++ (Compounds with a Cisplatin sensitization value of <0.02 μM are marked with “+++.”)
12,"C[C@H]1CN(C2COC2)CCN1c1ccncc1NC(=O)c1c(N)nn2cc(F)cnc12 [I-N-24, (S)-2-amino-6-fluoro-N-(4-(2-methyl-4-(oxetan-3-yl)piperazin-1-yl)pyridin-3-yl)pyrazolo[1,5-a]pyrimidine-3-carboxamide]",+++ (Compounds with a Cisplatin sensitization value of <0.02 μM are marked with “+++.”)
13,"Nc1nn2cc(F)cnc2c1C(=O)Nc1cnccc1-n1cccn1 [I-N-26, N-(4-(1H-pyrazol-1-yl)pyridin-3-yl)-2-amino-6-fluoropyrazolo[1,5-a]pyrimidine-3-carboxamide]",+ (Compounds with a Cisplatin sensitization value >0.2 μM but <5 μM are marked with “+.”)
14,"Nc1nn2cc(F)cnc2c1C(=O)Nc1cnccc1-n1cnc(C(F)(F)F)c1 [I-N-27, 2-amino-6-fluoro-N-(4-(4-(trifluoromethyl)-1H-imidazol-1-yl)pyridin-3-yl)pyrazolo[1,5-a]pyrimidine-3-carboxamide]",++ (Compounds with a Cisplatin sensitization value >0.02 μM but <0.2 μM are marked with “++.”)
15,"Cc1nccn1-c1ccncc1NC(=O)c1c(N)nn2cc(F)cnc12 [I-N-28, 2-amino-6-fluoro-N-(4-(2-methyl-1H-imidazol-1-yl)pyridin-3-yl)pyrazolo[1,5-a]pyrimidine-3-carboxamide]",+++ (Compounds with a Cisplatin sensitization value of <0.02 μM are marked with “+++.”)
16,"Nc1nn2cc(Cl)cnc2c1C(=O)Nc1cnccc1-n1ccnc1 [I-N-29, N-(4-(1H-imidazol-1-yl)pyridin-3-yl)-2-amino-6-chloropyrazolo[1,5-a]pyrimidine-3-carboxamide]",++ (Compounds with a Cisplatin sensitization value >0.02 μM but <0.2 μM are marked with “++.”)
17,"Cc1nc(C(F)(F)F)cn1-c1ccncc1NC(=O)c1c(N)nn2cc(F)cnc12 [I-N-30, 2-amino-6-fluoro-N-(4-(2-methyl-4-(trifluoromethyl)-1H-imidazol-1-yl)pyridin-3-yl)pyrazolo[1,5-a]pyrimidine-3-carboxamide]",++ (Compounds with a Cisplatin sensitization value >0.02 μM but <0.2 μM are marked with “++.”)
18,"Nc1nn2cc(F)cnc2c1C(=O)Nc1cncc(C2CC2)c1N1CCN(C2COC2)CC1 [I-N-32, 2-amino-N-(5-cyclopropyl-4-(4-(oxetan-3-yl)piperazin-1-yl)pyridin-3-yl)-6-fluoropyrazolo[1,5-a]pyrimidine-3-carboxamide]",++ (Compounds with a Cisplatin sensitization value >0.02 μM but <0.2 μM are marked with “++.”)
19,"Nc1nn2cc(F)cnc2c1C(=O)Nc1cnccc1N1CCN(C2CC2)CC1 [I-N-33, 2-amino-N-(4-(4-cyclopropylpiperazin-1-yl)pyridin-3-yl)-6-fluoropyrazolo[1,5-a]pyrimidine-3-carboxamide]",+ (Compounds with a Cisplatin sensitization value >0.2 μM but <5 μM are marked with “+.”)
20,"CC(C)(C)N1CCN(c2ccncc2NC(=O)c2c(N)nn3cc(Cl)cnc23)CC1 [I-N-34, 2-amino-N-(4-(4-(tert-butyl)piperazin-1-yl)pyridin-3-yl)-6-chloropyrazolo[1,5-a]pyrimidine-3-carboxamide]",++ (Compounds with a Cisplatin sensitization value >0.02 μM but <0.2 μM are marked with “++.”)
21,"CN(C)[C@H]1CCN(c2ccncc2NC(=O)c2c(N)nn3cc(Cl)cnc23)C[C@@H]1O [I-N-35, 2-amino-6-chloro-N-(4-((3S,4S)-4-(dimethylamino)-3-hydroxypiperidin-1-yl)pyridin-3-yl)pyrazolo[1,5-a]pyrimidine-3-carboxamide]",+ (Compounds with a Cisplatin sensitization value >0.2 μM but <5 μM are marked with “+.”)
22,"CN(C)CC1(O)CCN(c2ccncc2NC(=O)c2c(N)nn3cc(Cl)cnc23)CC1 [I-N-36, 2-amino-6-chloro-N-(4-(4-((dimethylamino)methyl)-4-hydroxypiperidin-1-yl)pyridin-3-yl)pyrazolo[1,5-a]pyrimidine-3-carboxamide]",++ (Compounds with a Cisplatin sensitization value >0.02 μM but <0.2 μM are marked with “++.”)
23,"CN(C)C1CCN(c2ccncc2NC(=O)c2c(N)nn3cc(Cl)cnc23)CC1 [I-N-37, 2-amino-6-chloro-N-(4-(4-(dimethylamino)piperidin-1-yl)pyridin-3-yl)pyrazolo[1,5-a]pyrimidine-3-carboxamide]",++ (Compounds with a Cisplatin sensitization value >0.02 μM but <0.2 μM are marked with “++.”)
24,"Nc1nn2cc(F)cnc2c1C(=O)Nc1cncc(Cl)c1N1CCN2CCN(C3COC3)CC2C1 (stereo not drawn) [I-N-38, 2-amino-N-(5-chloro-4-(8-(oxetan-3-yl)hexahydro-1H-pyrazino[1,2-a]pyrazin-2(6H)-yl)pyridin-3-yl)-6-fluoropyrazolo[1,5-a]pyrimidine-3-carboxamide]",++ (Compounds with a Cisplatin sensitization value >0.02 μM but <0.2 μM are marked with “++.”)
25,"CC(C)N1CCN(c2ccncc2NC(=O)c2c(N)nn3cc(Cl)cnc23)CC1 [I-N-39, 2-amino-6-chloro-N-(4-(4-isopropylpiperazin-1-yl)pyridin-3-yl)pyrazolo[1,5-a]pyrimidine-3-carboxamide]",++ (Compounds with a Cisplatin sensitization value >0.02 μM but <0.2 μM are marked with “++.”)
26,"CN(C)C1CCCN(c2ccncc2NC(=O)c2c(N)nn3cc(Cl)cnc23)C1 (stereo not drawn) [I-N-40, 2-amino-6-chloro-N-(4-(3-(dimethylamino)piperidin-1-yl)pyridin-3-yl)pyrazolo[1,5-a]pyrimidine-3-carboxamide]",++ (Compounds with a Cisplatin sensitization value >0.02 μM but <0.2 μM are marked with “++.”)
27,"CN1CCN(c2c(Cl)cncc2NC(=O)c2c(N)nn3cc(Cl)cnc23)CC1 [I-N-41, 2-amino-6-chloro-N-(5-chloro-4-(4-methylpiperazin-1-yl)pyridin-3-yl)pyrazolo[1,5-a]pyrimidine-3-carboxamide]",+++ (Compounds with a Cisplatin sensitization value of <0.02 μM are marked with “+++.”)

# From patent US11117900B2 (Vertex Pharmaceuticals Incorporated, priority 2012, dated 2021)
